Results taken from ChEMBL document CHEMBL2434908, “Synthesis and antibacterial evaluation of 3,3-diindolylmethane derivatives” (Med Chem Res, 2013).
In brackets after ≈: the same amount, converted by molar mass.

What was measured:
[1] = tested on: Shigella flexneri; assay: Antibacterial activity against Shigella flexneri assessed as growth inhibition by agar plate method; type: functional
[2] = tested on: Mycolicibacterium smegmatis; assay: Antibacterial activity against Mycobacterium smegmatis assessed as growth inhibition by agar plate method; type: functional
[3] = Hemolytic activity in human RBC up to 200 ug/mL after 1 hr by spectrophotometric analysis relative to control; type: ADME, cell-based, Erythrocyte; details: human red blood cells, read-out: Activity
[4] = tested on: Arthrobacter protophormiae; assay: Antibacterial activity against Arthrobacter protophormiae assessed as growth inhibition by agar plate method; type: functional; details: Glutamicibacter protophormiae
[5] = tested on: Escherichia coli; assay: Antibacterial activity against Escherichia coli assessed as growth inhibition by agar plate method; type: functional
[6] = tested on: Proteus mirabilis; assay: Antibacterial activity against Proteus mirabilis assessed as growth inhibition by agar plate method; type: functional
[7] = tested on: Rhodococcus; assay: Antibacterial activity against Rhodococcus Sp. assessed as growth inhibition by agar plate method; type: functional
[8] = tested on: Bacillus subtilis; assay: Antibacterial activity against Bacillus subtilis assessed as growth inhibition by agar plate method; type: functional
[9] = tested on: Pseudomonas aeruginosa; assay: Antibacterial activity against Pseudomonas aeruginosa assessed as growth inhibition by agar plate method; type: functional
[10] = tested on: Lactococcus lactis; assay: Antibacterial activity against Lactococcus lactis assessed as growth inhibition by agar plate method; type: functional
[11] = tested on: Staphylococcus aureus; assay: Antibacterial activity against Staphylococcus aureus assessed as growth inhibition by agar plate method; type: functional
[12] = Hemolytic activity in human RBC up to 400 ug/mL after 1 hr by spectrophotometric analysis relative to control; type: ADME, cell-based, Erythrocyte
[13] = Hemolytic activity in human RBC at 12.5 ug/mL after 1 hr by spectrophotometric analysis relative to control; type: ADME, cell-based, Erythrocyte; details: human red blood cells, read-out: Activity

Row | MIC [1] [µg/mL] | MIC [2] [µg/mL] | MIC [4] [µg/mL] | MIC [5] [µg/mL] | MIC [6] [µg/mL] | MIC [7] [µg/mL] | MIC [8] [µg/mL] | MIC [9] [µg/mL] | MIC [10] [µg/mL] | MIC [11] [µg/mL] | Structure (SMILES) | hemolysis at 1 h [3] [%] | hemolysis at 1 h ([12]; human red blood cells, read-out: Activity) [%] | hemolysis at 1 h, 12.5 ug/mL [13] [%] | Activity ([12]; erythrocyte, 1 h)
1 | 15.5 (≈ 45.8 µM) | 6.5 (≈ 19.2 µM) | 15.5 (≈ 45.8 µM) | 15.5 (≈ 45.8 µM) | 15.5 (≈ 45.8 µM) | 7.5 (≈ 22.2 µM) | 15.5 (≈ 45.8 µM) | 62.5 (≈ 185 µM) | 31.2 (≈ 92.2 µM) | 15.5 (≈ 45.8 µM) | Oc1ccccc1C(c1c[nH]c2ccccc12)c1c[nH]c2ccccc12 | 20 |  |  | 
2 | > 500 | > 500 | > 500 | > 500 | > 500 | > 500 | > 500 | > 500 | > 500 | > 500 | OC[C@@H](O)[C@H](O)[C@H](O)[C@@H](O)C(c1c[nH]c2ccccc12)c1c[nH]c2ccccc12 |  |  |  | 
3 | 31.2 (≈ 85.1 µM) | 31.2 (≈ 85.1 µM) | 62.5 (≈ 171 µM) | 62.5 (≈ 171 µM) | 31.2 (≈ 85.1 µM) | 15.5 (≈ 42.3 µM) | 125 (≈ 341 µM) | 62.5 (≈ 171 µM) | 62.5 (≈ 171 µM) | 62.5 (≈ 171 µM) | OC[C@@H](O)[C@@H](O)[C@@H](O)C(c1c[nH]c2ccccc12)c1c[nH]c2ccccc12 |  | 15 |  | 
4 | > 500 | > 500 | > 500 | > 500 | > 500 | > 500 | > 500 | > 500 | > 500 | > 500 | OC[C@@H](O)[C@@H](O)[C@H](O)[C@@H](O)C(c1c[nH]c2ccccc12)c1c[nH]c2ccccc12 |  |  |  | 
5 | 31.2 (≈ 99.9 µM) | 15.5 (≈ 49.6 µM) | 31.2 (≈ 99.9 µM) | 62.5 (≈ 200 µM) | 31.2 (≈ 99.9 µM) | 31.2 (≈ 99.9 µM) | 125 (≈ 400 µM) | 31.2 (≈ 99.9 µM) | 62.5 (≈ 200 µM) | 125 (≈ 400 µM) | c1coc(C(c2c[nH]c3ccccc23)c2c[nH]c3ccccc23)c1 |  |  | 50 | 
6 | > 500 | > 500 | > 500 | > 500 | > 500 | > 500 | > 500 | > 500 | > 500 | > 500 | CN(C)c1ccc(C(c2c[nH]c3ccccc23)c2c[nH]c3ccccc23)cc1 |  |  |  | 
7 | > 500 | > 500 | > 500 | > 500 | > 500 | > 500 | > 500 | > 500 | > 500 | > 500 | Cc1[nH]c2ccccc2c1Cc1c(C)[nH]c2ccccc12 |  |  |  | 
8 | > 500 | > 500 | > 500 | > 500 | > 500 | > 500 | > 500 | > 500 | > 500 | > 500 | c1ccc(-c2[nH]c3ccccc3c2Cc2c(-c3ccccc3)[nH]c3ccccc23)cc1 |  |  |  | 
9 | 125 (≈ 507 µM) | 125 (≈ 507 µM) | 125 (≈ 507 µM) | 250 (≈ 1010 µM) | 250 (≈ 1010 µM) | 125 (≈ 507 µM) | 250 (≈ 1010 µM) | 250 (≈ 1010 µM) | 500 (≈ 2030 µM) | 250 (≈ 1010 µM) | c1ccc2c(Cc3c[nH]c4ccccc34)c[nH]c2c1 [ARUNDINE] | 20 |  |  | 
10 | > 500 | > 500 | > 500 | > 500 | > 500 | > 500 | > 500 | > 500 | > 500 | > 500 | OC[C@@H](O)[C@@H](O)[C@H](O)[C@H](O)C(c1c[nH]c2ccccc12)c1c[nH]c2ccccc12 |  |  |  | 
11 | > 500 | > 500 | > 500 | > 500 | > 500 | > 500 | > 500 | > 500 | > 500 | > 500 | COc1ccc2[nH]cc(Cc3c[nH]c4ccc(OC)cc34)c2c1 |  |  |  | 
12 | 15.5 (≈ 47.9 µM) | 31.2 (≈ 96.5 µM) | 15.5 (≈ 47.9 µM) | 31.2 (≈ 96.5 µM) | 15.5 (≈ 47.9 µM) | 6.5 (≈ 20.1 µM) | 15.5 (≈ 47.9 µM) | 31.2 (≈ 96.5 µM) | 15.5 (≈ 47.9 µM) | 32.2 (≈ 99.6 µM) | c1cncc(C(c2c[nH]c3ccccc23)c2c[nH]c3ccccc23)c1 | 20 |  |  | 
13 | 250 (≈ 692 µM) | 31.2 (≈ 86.3 µM) | 125 (≈ 346 µM) | 125 (≈ 346 µM) | 250 (≈ 692 µM) | 31.2 (≈ 86.3 µM) | 250 (≈ 692 µM) | 125 (≈ 346 µM) | 500 (≈ 1380 µM) | 250 (≈ 692 µM) | c1ccc2c(C(c3c[nH]c4ccccc34)c3c[nH]c4ccccc34)c[nH]c2c1 | 20 |  |  | Toxic

Row | Structure (SMILES) | MIC [1] [µg/mL] | MIC [2] [µg/mL] | MIC [4] [µg/mL] | MIC [5] [µg/mL] | MIC [6] [µg/mL] | MIC [7] [µg/mL] | MIC [8] [µg/mL] | MIC [9] [µg/mL] | MIC [10] [µg/mL] | MIC [11] [µg/mL] | hemolysis at 1 h [3] [%] | hemolysis at 1 h ([12]; human red blood cells, read-out: Activity) [%] | hemolysis at 1 h, 12.5 ug/mL [13] [%] | Activity ([12]; erythrocyte, 1 h)
14 | CN[C@@H]1[C@H](O[C@H]2[C@H](O[C@H]3[C@H](O)[C@@H](O)[C@H](N=C(N)N)[C@@H](O)[C@@H]3N=C(N)N)O[C@@H](C)[C@]2(O)C=O)O[C@@H](CO)[C@H](O)[C@H]1O [STREPTOMYCIN] | 6.25 (≈ 10.7 µM) | 1.25 (≈ 2.15 µM) | 0.75 (≈ 1.29 µM) | 6.25 (≈ 10.7 µM) | 1.25 (≈ 2.15 µM) | 0.75 (≈ 1.29 µM) | 1.5 (≈ 2.58 µM) | 3.15 (≈ 5.42 µM) | 1.5 (≈ 2.58 µM) | 12.5 (≈ 21.5 µM) |  |  |  | 
